Assay results as given in ChEMBL document CHEMBL3885881, “DrugMatrix”.

Species: Rattus norvegicus
Experiment: DrugMatrix - Regimen: Daily Repeat
Type: toxicity, organism-based, Sprague-Dawley
Set-up: regimen Daily Repeat, gender Male, age 6-8 weeks
Settings: in vivo, po, route oral GAVAGE, […]; for ABSOLUTE BASOPHIL / ABSOLUTE EOSINOPHIL / ABSOLUTE LYMPHOCYTE / ABSOLUTE MONOCYTE / ABSOLUTE SEGMENTED NEUTROPHIL / BASOPHIL / EOSINOPHIL / ERYTHROCYTE COUNT / HEMATOCRIT / HEMOGLOBIN / LEUKOCYTE COUNT / LYMPHOCYTE / MEAN CORPUSCULAR HEMOGLOBIN / MEAN CORPUSCULAR HEMOGLOBIN CONCENTRATION / MEAN CORPUSCULAR VOLUME / MONOCYTE / NEUTROPHIL / NUCLEATED RED BLOOD CELLS / PLATELET COUNT: tissue Blood; for ALANINE AMINOTRANSFERASE / ALBUMIN / ALKALINE PHOSPHATASE / ASPARTATE AMINOTRANSFERASE / BLOOD UREA NITROGEN / CARBON DIOXIDE / CHLORIDE / CHOLESTEROL / CREATINE PHOSPHOKINASE / CREATININE / GLUCOSE / LACTATE DEHYDROGENASE / LIPASE / PHOSPHORUS / POTASSIUM / SODIUM / TOTAL BILIRUBIN / TOTAL PROTEIN / URIC ACID: tissue Plasma
[1] = 11 mg/kg, 120 h, dose level High, time 5 day
[2] = 72 h, dose 0.26 mg/Kg, dose level Low, time 3 day
[3] = 120 h, dose 0.26 mg/Kg, dose level Low, time 5 day

C[C@H]1O[C@@H](O[C@H]2[C@@H](O)C[C@H](O[C@H]3[C@@H](O)C[C@H](O[C@H]4CC[C@@]5(C)[C@H](CC[C@@H]6[C@@H]5C[C@@H](O)[C@]5(C)[C@@H](C7=CC(=O)OC7)CC[C@]65O)C4)O[C@@H]3C)O[C@@H]2C)C[C@H](O)[C@@H]1O [DIGOXIN]
ABSOLUTE BASOPHIL [1]: 0 CELLS/uL
ABSOLUTE EOSINOPHIL [1]: 21.33 CELLS/uL
ABSOLUTE LYMPHOCYTE [1]: 5911 CELLS/uL
ABSOLUTE MONOCYTE [1]: 0 CELLS/uL
ABSOLUTE SEGMENTED NEUTROPHIL [1]: 367.67 CELLS/uL
BASOPHIL [1]: 0%
EOSINOPHIL [1]: 0.33%
ERYTHROCYTE COUNT [1]: 6.17 x10E6/uL
HEMATOCRIT [1]: 38.03%
HEMOGLOBIN [1]: 15.03 G/DL
LEUKOCYTE COUNT [1]: 6.3 x10E3/uL
LYMPHOCYTE [1]: 94.33%
MEAN CORPUSCULAR HEMOGLOBIN [1]: 24.37 pg
MEAN CORPUSCULAR HEMOGLOBIN CONCENTRATION [1]: 39.53 G/DL
MEAN CORPUSCULAR VOLUME [1]: 61.63 fL
MONOCYTE [1]: 0%
NEUTROPHIL [1]: 5.33%
NUCLEATED RED BLOOD CELLS [1]: 0 /100WBC
PLATELET COUNT [1]: 1098 x10E3/uL
ALANINE AMINOTRANSFERASE [1]: 90 u/L
ALBUMIN [1]: 4.37 G/DL
ALKALINE PHOSPHATASE [1]: 342 u/L
ASPARTATE AMINOTRANSFERASE [1]: 79.67 u/L
BLOOD UREA NITROGEN [1]: 9.33 mg/dL
CARBON DIOXIDE [1]: 32.67 mmol/L
CHLORIDE [1]: 95 MEQ/L
CHOLESTEROL [1]: 90.67 mg/dL
CREATINE PHOSPHOKINASE [1]: 208.33 u/L
CREATININE [1]: 0.11 mg/dL
GLUCOSE [1]: 175.67 mg/dL
LACTATE DEHYDROGENASE [1]: 92 u/L
LIPASE [1]: 9.33 u/L
PHOSPHORUS [1]: 9.27 mg/dL
POTASSIUM [1]: 4.94 MEQ/L
SODIUM [1]: 141.5 MEQ/L
TOTAL BILIRUBIN [1]: 0.17 mg/dL
TOTAL PROTEIN [1]: 6.23 G/DL
URIC ACID [1]: 0.5 mg/dL
ABSOLUTE BASOPHIL [2]: 0 CELLS/uL
ABSOLUTE EOSINOPHIL [2]: 80.67 CELLS/uL
ABSOLUTE LYMPHOCYTE [2]: 8480.33 CELLS/uL
ABSOLUTE MONOCYTE [2]: 0 CELLS/uL
ABSOLUTE SEGMENTED NEUTROPHIL [2]: 705.67 CELLS/uL
BASOPHIL [2]: 0%
EOSINOPHIL [2]: 0.67%
ERYTHROCYTE COUNT [2]: 5.56 x10E6/uL
HEMATOCRIT [2]: 34.27%
HEMOGLOBIN [2]: 13.27 G/DL
LEUKOCYTE COUNT [2]: 9.27 x10E3/uL
LYMPHOCYTE [2]: 91.67%
MEAN CORPUSCULAR HEMOGLOBIN [2]: 23.83 pg
MEAN CORPUSCULAR HEMOGLOBIN CONCENTRATION [2]: 38.73 G/DL
MEAN CORPUSCULAR VOLUME [2]: 61.63 fL
MONOCYTE [2]: 0%
NEUTROPHIL [2]: 7.67%
NUCLEATED RED BLOOD CELLS [2]: 0 /100WBC
PLATELET COUNT [2]: 1014 x10E3/uL
ALANINE AMINOTRANSFERASE [2]: 79.33 u/L
ALBUMIN [2]: 3.97 G/DL
ALKALINE PHOSPHATASE [2]: 406.67 u/L
ASPARTATE AMINOTRANSFERASE [2]: 82.67 u/L
BLOOD UREA NITROGEN [2]: 14.67 mg/dL
CARBON DIOXIDE [2]: 34 mmol/L
CHLORIDE [2]: 101.33 MEQ/L
CHOLESTEROL [2]: 79.33 mg/dL
CREATINE PHOSPHOKINASE [2]: 157.33 u/L
CREATININE [2]: 0.12 mg/dL
GLUCOSE [2]: 161 mg/dL
LACTATE DEHYDROGENASE [2]: 84 u/L
LIPASE [2]: 10 u/L
PHOSPHORUS [2]: 9.57 mg/dL
POTASSIUM [2]: 6.36 MEQ/L
SODIUM [2]: 146.27 MEQ/L
TOTAL BILIRUBIN [2]: 0.27 mg/dL
TOTAL PROTEIN [2]: 5.63 G/DL
URIC ACID [2]: 1.2 mg/dL
ABSOLUTE BASOPHIL [3]: 0 CELLS/uL
ABSOLUTE EOSINOPHIL [3]: 0 CELLS/uL
ABSOLUTE LYMPHOCYTE [3]: 13719.67 CELLS/uL
ABSOLUTE MONOCYTE [3]: 0 CELLS/uL
ABSOLUTE SEGMENTED NEUTROPHIL [3]: 1313.67 CELLS/uL
BASOPHIL [3]: 0%
EOSINOPHIL [3]: 0%
ERYTHROCYTE COUNT [3]: 5.8 x10E6/uL
HEMATOCRIT [3]: 35.03%
HEMOGLOBIN [3]: 13.67 G/DL
LEUKOCYTE COUNT [3]: 15.03 x10E3/uL
LYMPHOCYTE [3]: 90.33%
MEAN CORPUSCULAR HEMOGLOBIN [3]: 23.57 pg
MEAN CORPUSCULAR HEMOGLOBIN CONCENTRATION [3]: 39.03 G/DL
MEAN CORPUSCULAR VOLUME [3]: 60.4 fL
MONOCYTE [3]: 0%
NEUTROPHIL [3]: 9.67%
NUCLEATED RED BLOOD CELLS [3]: 0 /100WBC
PLATELET COUNT [3]: 1074 x10E3/uL
ALANINE AMINOTRANSFERASE [3]: 64.67 u/L
ALBUMIN [3]: 4.03 G/DL
ALKALINE PHOSPHATASE [3]: 401.33 u/L
ASPARTATE AMINOTRANSFERASE [3]: 82.67 u/L
BLOOD UREA NITROGEN [3]: 15.33 mg/dL
CARBON DIOXIDE [3]: 31.67 mmol/L
CHLORIDE [3]: 100.33 MEQ/L
CHOLESTEROL [3]: 58.67 mg/dL
CREATINE PHOSPHOKINASE [3]: 259 u/L
CREATININE [3]: 0.14 mg/dL
GLUCOSE [3]: 148.33 mg/dL
LACTATE DEHYDROGENASE [3]: 110 u/L
LIPASE [3]: 9.33 u/L
PHOSPHORUS [3]: 9.93 mg/dL
POTASSIUM [3]: 5.45 MEQ/L
SODIUM [3]: 144.47 MEQ/L
TOTAL BILIRUBIN [3]: 0.2 mg/dL
TOTAL PROTEIN [3]: 5.73 G/DL
URIC ACID [3]: 0.7 mg/dL
